Earlier results, collected in patent US20170189347A1, “TRANSDERMAL DELIVERY SYSTEM” (priority 2014, published 2017).

Assays:
MAO-B = MAO-B (Homo sapiens, UniProt P27338); conditions: in humans
MAO-A = MAO-A (Homo sapiens, UniProt P21397); conditions: in humans
[1] = not given; remark: listed apart in the source

Chain of MAO-A (P21397 whole entry): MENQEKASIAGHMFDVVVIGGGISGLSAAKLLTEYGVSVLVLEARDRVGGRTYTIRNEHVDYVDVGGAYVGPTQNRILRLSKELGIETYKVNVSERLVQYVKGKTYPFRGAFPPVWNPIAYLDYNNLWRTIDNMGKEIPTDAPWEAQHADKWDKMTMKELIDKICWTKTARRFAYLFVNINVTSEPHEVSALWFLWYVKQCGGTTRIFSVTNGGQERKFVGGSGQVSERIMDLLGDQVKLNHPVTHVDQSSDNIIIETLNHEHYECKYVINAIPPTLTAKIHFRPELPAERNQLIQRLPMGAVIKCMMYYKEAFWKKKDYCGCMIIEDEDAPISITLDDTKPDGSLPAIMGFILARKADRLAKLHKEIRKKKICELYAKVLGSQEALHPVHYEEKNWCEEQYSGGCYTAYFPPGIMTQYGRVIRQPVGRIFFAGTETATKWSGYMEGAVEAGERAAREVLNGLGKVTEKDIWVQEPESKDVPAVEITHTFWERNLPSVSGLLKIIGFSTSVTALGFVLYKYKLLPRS
Chain of MAO-B (P27338 whole entry): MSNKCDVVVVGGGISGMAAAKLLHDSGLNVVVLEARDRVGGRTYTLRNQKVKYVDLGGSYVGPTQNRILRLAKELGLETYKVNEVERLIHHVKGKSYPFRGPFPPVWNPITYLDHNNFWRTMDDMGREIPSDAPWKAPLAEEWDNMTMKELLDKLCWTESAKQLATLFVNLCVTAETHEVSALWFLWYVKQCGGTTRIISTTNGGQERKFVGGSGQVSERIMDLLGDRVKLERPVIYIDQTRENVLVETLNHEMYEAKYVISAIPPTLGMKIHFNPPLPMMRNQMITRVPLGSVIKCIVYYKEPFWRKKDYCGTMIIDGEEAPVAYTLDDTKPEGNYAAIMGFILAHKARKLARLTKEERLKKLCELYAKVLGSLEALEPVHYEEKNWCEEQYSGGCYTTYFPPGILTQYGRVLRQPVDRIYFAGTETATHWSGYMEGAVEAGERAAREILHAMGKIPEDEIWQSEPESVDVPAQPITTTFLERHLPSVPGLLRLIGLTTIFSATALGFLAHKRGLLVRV

| Structure (SMILES) | solubility in water | inhibition of MAO-B (MAO-B) | inhibition of MAO-A (MAO-A) | solubility in non-crosslinked acrylic copolymer PSA DT 87-4098 ([1]; DT 87-4098) [wt %] | solubility in non-crosslinked acrylic copolymer PSA DT 87-9088 ([1]; DT 87-9088) [wt %] | solubility in non-crosslinked acrylic copolymer PSA DT 87-9301 ([1]; DT 87-9301) [wt %] | solubility in polyisobutylene (PIB) PSA ([1]; PIB) | solubility in silicone PSA ([1]; silicone PSA) [wt %] |
| --- | --- | --- | --- | --- | --- | --- | --- | --- |
| C#CCN[C@@H]1CCc2ccccc21 [rasagiline, (1R)-N-(prop-2-yn-1-yl)-2,3-dihydro-1H-inden-1-amine] | 0.025 grams of drug per liter of water | selectively inhibit MAO-B | not to inhibit MAO-A | 54 | 111 | 78 | about 8 wt % | ~6 |
| C#CCN(C)[C@H](C)Cc1ccccc1 [selegiline] | 0.025 grams of drug per liter of water |  |  |  |  |  |  |  |
